Test results: patent publication US11497813B2, “Bortezomib conjugates and methods using same” (Frank EBETINO et al., priority 2015, dated 2022)

Experiments:
Ub-proteins = assay: Duration of ubiquitinization effect (FIG. 18); details: compared with Btz
human MPCs = assay: Osteoblast differentiation of human MPCs/MSCs (ALP staining); format: cell-based
Description: FIG. 5A is a scheme of an exemplary synthesis of compound BP-Btz1. FIG. 5B is a series of images of bone slices pre-incubated with 1 μM BP-Btz1, Btz, or bisphosphonate (BP) overnight. Drug solutions were removed and bone slices were washed with PBS extensively. […] (BM) cells from UB^G76V-GFP mice were cultured on bone slices in the presence of M-CSF and RANKL for 9 days. Top images (a): GFP^+ cells were observed under a fluorescence microscope and GFP signal intensity was quantified. Middle images (b): bone slices were fixed and subjected to TRAP staining for osteoclasts (OCs). OC #/slice were counted. Bottom images (c): cells were removed from slices. Toluidine blue staining was performed and pit areas/slice were counted. […] The ALP^+ areas were measured by Image J. *P<0.05 vs. Btz-treated cells.
1. […] Following proteasome inhibitor administration, Ub^G76V accumulates and GFP fluorescence is readily apparent. GFP^+ OCs were detected at 4 and 8 hrs after adding Btz to OC cultures, which disappeared at 24 hrs. […] The number and area of OCs and resorption pits are assessed. The appearance, intensity and distribution of GFP^+ cells on bone slices and plastic surrounding bone slices during OC formation is observed and recorded. […] Area of ALP^+ and mineralized bone nodule, and the expression levels of OB marker genes (ALP, osteocalcin, Runx2) are measured. […]

[1] = tested on: bone resorption and formation; assay: In vivo dose-response experiments on bone resorption and formation
Source text: In vitro testing is also used to examine analogues of BP-Btz1.

OVX mice = assay: OVX-induced bone loss in C57/B6 mice; format: in vivo, mouse
Description: Ovariectomy was carried out in 10-week-old female C57/B6 mice.
Histomorphometry (FIG. 20A) and biomechanical testing (FIG. 20B) were also done. These experiments were done using C57/B6 mice, 10 w, treatment at 4 w post-OVX for 4 w.

fractured mice = assay: Open tibial fracture healing in WT mice; format: in vivo, mouse
Description: WT mice that received an open tibial fracture were treated with Btz (0.6 mg/kg body weight, ip) or vehicle at day 1, 3, 5, 7, and sacrificed at various days post-fracture. FIG. 2A is an image of the structure of Bortezomib. FIG. 2B is a graph depicting μCT data analyses of callus size from 10 days post-fracture. N+4 mice/group. FIG. 2C is a series of images of representative histology of fractured tibiae stained with alcian blue hematoxylin/orange G eosin showing cartilage (blue) and bone (pink) formation. Histomorphometric measurements were performed with a Visiopharm Imaging Analysis software system. N=3 mice/group. FIG. 2D is a series of graphs depicting data of biomechanical testing of tibiae from 28 days after fracture. N=5 mice/group. FIG. 2E is a series of images of spectra depicting data of immune-phenotyping of callus cells from 7 days post-fracture. FIG. 2F is a series of images of immunoblots depicting protein expression levels of total Ub-proteins and JunB and Runx2 levels in calluses from 10 days post-fracture. *p<0.05 vs. vehicle group.

thymus = details: mice, cited from earlier work
[2] = OVX C57/B6 mice, treatment at 4 w post-OVX for 4 w

| SMILES | ubiquitinization effect (Ub-proteins) | osteoblast differentiation (human MPCs) | bone resorption [1] | bone formation ([1]; compared with Btz alone) | bone mass (OVX mice; [2]) | bone strength (OVX mice; [2]) | OVX-induced bone loss (OVX mice; OVX mice) | osteoblast differentiation (OVX mice; OVX mice) | CFU-ALP colony formation (OVX mice; cells from OVX mice) | CFU-F colony formation (OVX mice; cells from OVX mice) | expression of osteoblast positive regulators (fractured mice; 0.6 mg/kg ip day 1, 3, 5, 7, JunB and Runx2 in calluses) | MSC numbers (fractured mice; 0.6 mg/kg ip day 1, 3, 5, 7, callus cells) | Nestin+ MPCs (fractured mice; fractured mice) | bone strength (fractured mice; fractured mice) | callus formation (fractured mice; fractured mice) | Ub-proteins in fracture calluses (fractured mice; short-term treatment) | fracture healing (fractured mice; short-term treatment) | splenocytes numbers (thymus; Btz injection) | total and CD4+ and CD8+ thymocyte numbers (thymus; Btz injection) | number of T cells in the thymus (thymus; as early as 3 days after administration) |
| --- | --- | --- | --- | --- | --- | --- | --- | --- | --- | --- | --- | --- | --- | --- | --- | --- | --- | --- | --- | --- |
| CC(C)C[C@H](NC(=O)[C@H](Cc1ccccc1)NC(=O)c1cnccn1)B1OCCN(CCOC(=O)NC(P(=O)(O)O)P(=O)(O)O)CCO1 [BP-Btz1] | more sustained ubiquitinization effect than Btz | stimulates osteoblast differentiation | inhibits bone resorption | stimulates formation at doses lower than effective doses of Btz alone | increases bone mass and strength in OVX mice as effectively as Btz | increases bone mass and strength in OVX mice as effectively as Btz | reduces OVX-induced bone loss | more potently promotes osteoblast differentiation | increases CFU-ALP colony formation | increases CFU-F colony formation |  |  |  |  |  |  |  |  |  |  |
| CC(C)C[C@H](NC(=O)[C@H](Cc1ccccc1)NC(=O)c1cnccn1)B(O)O [Btz, [(1R)-3-methyl-1-[[(2S)-1-oxo-3-phenyl-2[(pyrazinylcarbonyl)amino]propyl]amino]butyl] boronic acid] |  |  |  |  |  |  |  |  |  |  | increases | increases | increased | increases bone strength | accelerates callus formation | accumulation of Ub-proteins | increases fracture healing | not | markedly decreases | significantly reduces |
